Assay results reported in patent US11850273B2, “Chemical reprogramming of human glial cells into neurons for brain and spinal cord repair” (The Penn State Research Foundation, priority 2014, dated 2023).

Test system: human astrocyte-converted neurons
Experiment: Patch clamp whole-cell recordings of human astrocyte-converted neurons

DNQX
effect on spontaneous burst activities: abolished
